Among the data in ChEMBL document CHEMBL1135492, “An investigation of bone resorption and Dictyostelium discoideum growth inhibition by bisphosphonate drugs” (J Med Chem, 2002) are IC50 and LED values, retold here.

One experiment deals with Dictyostelium discoideum. The experiment in a line: Ability to inhibit growth of Dictostelium discoideum. The class given is functional, organism-based.
The species named for another experiment is Rattus norvegicus. The experiment in a line: Bone resorption activity in rats. It counts as functional.

Usually IC50 stands for the concentration at which inhibition is half-maximal. In the case of `O=P(O)(O)C(Cc1ccccn1)P(=O)(O)O` [PIRIDRONIC ACID], the midpoint of inhibition in the experiment with Dictyostelium discoideum, the IC50, lay at 20 µM. The LED in the experiment listed under Rattus norvegicus came out at 0.01 mgP kg-1.
On to `NCCCC(P(=O)(O)O)P(=O)(O)O`, for which, in the experiment on Dictyostelium discoideum, the IC50 is 44 µM. This counts as double-digit micromolar.
In the experiment filed under Rattus norvegicus, `Cc1ccnc(NC(P(=O)(O)O)P(=O)(O)O)c1` registered an LED of 0.001 mgP kg-1.
Compound `O=P(O)(O)C(O)(CCc1cccnc1)P(=O)(O)O` yielded an IC50 in the experiment with Dictyostelium discoideum of 310 µM. In the experiment filed under Rattus norvegicus, this compound registered an LED of 1 mgP kg-1.
Turning to `O=P(O)(O)C(O)(Cc1ccncc1)P(=O)(O)O`, the LED in the experiment filed under Rattus norvegicus came out at 0.01 mgP kg-1.
In the experiment filed under Rattus norvegicus, `O=P(O)(O)C(NC1CCCCCC1)P(=O)(O)O` [INCADRONIC ACID] showed an LED of 0.001 mgP kg-1.
Take `O=P(O)(O)C(C1CCc2cccnc21)P(=O)(O)O` (stereo unspecified): in the experiment on Dictyostelium discoideum, the IC50 was found to be 38 µM. Besides, the LED in the experiment filed under Rattus norvegicus turned out to be 0.1 mgP kg-1.
On the same counts, the results for `O=P(O)(O)C(CNc1ccccn1)P(=O)(O)O` are 15 µM and 0.01 mgP kg-1.
Compound `O=P(O)(O)C(CCc1ccccn1)P(=O)(O)O` yielded an IC50 in the experiment on Dictyostelium discoideum of 150 µM.
As to `O=P(O)(O)C1(P(=O)(O)O)CC2CCCNC2C1` (stereo unspecified), 13 µM corresponded to half-maximal inhibition in the experiment with Dictyostelium discoideum (IC50). For the same compound, in the experiment listed under Rattus norvegicus, the LED worked out at 0.01 mgP kg-1.
For `C[n+]1ccccc1CC(O)(P(=O)(O)O)P(=O)(O)O`, the LED in the experiment listed under Rattus norvegicus is recorded as 0.01 mgP kg-1.
Same read-out and setting: the same measure for `O=P(O)(O)C(Nc1ncccn1)P(=O)(O)O`: 0.001 mgP kg-1.
As for `Cc1cccnc1NCC(P(=O)(O)O)P(=O)(O)O`, 40 µM corresponded to half-maximal inhibition with Dictyostelium discoideum (IC50). Further, the LED in the experiment listed under Rattus norvegicus is listed as 1 mgP kg-1.
Turning to `O=P(O)(O)C(Nc1ccc(Cl)cn1)P(=O)(O)O`, the LED in the experiment filed under Rattus norvegicus came to 0.01 mgP kg-1.
The same measure, in the same setting: the same measure for `O=P(O)(O)C(O)(CCc1ccncc1)P(=O)(O)O`: 1 mgP kg-1; for `CCCCP(=O)(O)C(Nc1ncccc1C)P(=O)(O)O` (stereo unspecified): 1 mgP kg-1.
Turning to `CC(O)(P(=O)(O)O)P(=O)(O)O` [ETIDRONIC ACID], the IC50 in the experiment on Dictyostelium discoideum was 380 µM. This compound registered an LED in the experiment filed under Rattus norvegicus of 1 mgP kg-1.
On to `Cc1cccc(NC(P(=O)(O)O)P(=O)(O)O)n1`, for which the LED in the experiment listed under Rattus norvegicus was determined as 0.001 mgP kg-1.
Same read-out and setting: the same measure for `O=P(O)(O)C(O)(Cc1ccccn1)P(=O)(O)O`: 0.001 mgP kg-1.
Compound `Cc1cccnc1NC(P(=O)(O)O)P(=O)(O)O` displayed an IC50 in the experiment with Dictyostelium discoideum of 9 µM. In the experiment filed under Rattus norvegicus, this compound returned an LED of 0.001 mgP kg-1.
In turn, `CCCCCN(C)CCC(O)(P(=O)(O)O)P(=O)(O)O` [IBANDRONIC ACID] had an LED in the experiment filed under Rattus norvegicus of 0.0001 mgP kg-1.
The same measure, in the same setting: the same measure for `O.O=P(O)(O)C(O)(Cn1ccnc1)P(=O)(O)O` [ZOLEDRONIC ACID]: 0.0001 mgP kg-1.
The compound `O=P(O)(O)C(Nc1ccccn1)P(=O)(O)O` came in with an IC50 in the experiment on Dictyostelium discoideum of 12 µM. In addition, the LED in the experiment filed under Rattus norvegicus is recorded as 0.01 mgP kg-1.
`CCCCCCC[n+]1ccc(CC(O)(P(=O)(O)O)P(=O)(O)O)cc1`: the LED in the experiment filed under Rattus norvegicus was found to be 0.01 mgP kg-1.
With `NCCC(O)(P(=O)(O)O)P(=O)(O)O` [PAMIDRONIC ACID], in the experiment on Dictyostelium discoideum, the midpoint of inhibition, the IC50, lay at 167 µM. Besides, in the experiment filed under Rattus norvegicus, the LED was determined as 0.03 mgP kg-1.
`Cc1cccnc1NC(P(C)(=O)O)P(=O)(O)O` (stereo unspecified) yielded an LED in the experiment listed under Rattus norvegicus of 1 mgP kg-1.
In the experiment on Dictyostelium discoideum, `NCCCC(O)(P(=O)(O)O)P(=O)(O)O` [ALENDRONIC ACID] came in with an IC50 of 32 µM. For the same compound, in the experiment filed under Rattus norvegicus, the LED is listed as 0.001 mgP kg-1.
As to `C[n+]1ccc(CC(O)(P(=O)(O)O)P(=O)(O)O)cc1`, the LED in the experiment listed under Rattus norvegicus was 0.01 mgP kg-1.
As for `C[n+]1cccc(CC(O)(P(=O)(O)O)P(=O)(O)O)c1`, in the experiment listed under Rattus norvegicus, the LED was determined as 0.0001 mgP kg-1.
Same read-out and setting: the same measure for `Cc1ccc(NC(P(=O)(O)O)P(=O)(O)O)nc1`: 0.001 mgP kg-1.
As for `O=P(O)(O)C(O)(C1CCc2ccncc21)P(=O)(O)O` (stereo unspecified), the IC50 with Dictyostelium discoideum stood at 36 µM. In the experiment listed under Rattus norvegicus, this compound returned an LED of 0.01 mgP kg-1.
Compound `O=P(O)(O)C1(P(=O)(O)O)Cc2cccnc2C1` had an IC50 in the experiment with Dictyostelium discoideum of 1200 µM.
In the experiment with Dictyostelium discoideum, `O=P(O)(O)C(O)(Cc1cccnc1)P(=O)(O)O` [RISEDRONIC ACID] displayed an IC50 of 13 µM. In the experiment filed under Rattus norvegicus, this compound came in with an LED of 0.0003 mgP kg-1.
`O=P(O)(O)C(O)(Cc1cnc2ccccn12)P(=O)(O)O` [MINODRONIC ACID]: the LED in the experiment filed under Rattus norvegicus came out at 0.0001 mgP kg-1.
`C[n+]1cccc2c1CC(P(=O)(O)O)(P(=O)(O)O)C2`: the LED in the experiment listed under Rattus norvegicus came out at 0.1 mgP kg-1.
For `Cc1ccc(NC(P(C)(=O)O)P(=O)(O)O)nc1` (stereo unspecified), the LED in the experiment filed under Rattus norvegicus turned out to be 1 mgP kg-1.
The same measure, in the same setting: the same measure for `O=P(O)(O)C(Cc1cccnc1)P(=O)(O)O`: 0.01 mgP kg-1; for `CCN(c1ccncc1)C(P(=O)(O)O)P(=O)(O)O`: 0.1 mgP kg-1.
